The text below walks through data of publication PMC12362587, “Untargeted Diversity-Oriented Synthesis for the Discovery of New Antitumor Agents: An Integrated Approach of Inverse Virtual Screening, Bioinformatics, and Omics for Target Deconvolution” (Journal of Medicinal Chemistry, 2025).

The target in test [1] is T1, PPARγ-Ligand Binding Domain (human recombinant) (Homo sapiens, UniProt P37231).
T1 construct: purchased Cayman
Put plainly: PPARγ-LBD Ligand Screening Assay Kit (Cayman). Conditions: PPARγ-LBD probe displacement, top concentration 30 μM; read-out: EC50 or IC50, peroxisome proliferator-activated receptor gamma. On the procedure:
The assay was performed in a volume of 50 μL in a 96-well plate. In the PPARγ-Ligand Binding Domain screening assay (Cayman, USA), a ligand of Peroxisome proliferator-activated receptor gamma (PPARγ) is conjugated to fluorescein and is used as a displacement probe. To evaluate the binding ability to the target, PPARγ-Ligand Binding Domain (human recombinant), PPARγ Probe – Green and the compounds were incubated in the dark for 1 h at room temperature. The compounds were added at different concentrations in the reaction buffer, starting from a final concentration of 30 μM. Buffer with the same amount of DMSO (1%) was used as a negative control. The fluorescence signals (excitation/emission, 490 nm/520 nm) were read using a PerkinElmer EnSpire multimode plate reader (PerkinElmer, Waltham, MA, USA). The experiments were performed in triplicate. The IC50 values were calculated using GraphPad Prism 8.0 software by nonlinear regression of dose–response inhibition.

The next test concerns the target human CB2R (Homo sapiens, UniProt P34972). Put plainly: cAMP Hunter assay, functional activity at CB2R. In kind it is cell-based. Also noted: host or cells: CHO-K1. Conditions: CHO cells expressing human CB2R, alone and with JWH133. The procedure:
The curves show the effect of increasing concentrations of the compound on NKH-477-induced cAMP levels in stable CHO cells expressing the human CB2R. The effect of JWH-133 is reported as a reference compound. Data are reported as means ± standard error of three independent experiments conducted in triplicate and normalized considering the NKH-477 stimulus alone as 100% of the response as indicated in the experimental session. EC50 was determined by GraphPad Prism 9 as the concentration that provokes the response halfway between the baseline (bottom) and maximum response (top) of the fitted dose–response.
The functional activity at CB2Rs was evaluated using the cAMP Hunter assay with an enzyme fragment complementation chemiluminescent detection kit, as previously reported. Following the manufacturer’s instructions, this assay measured Gi-coupled cAMP modulation in CB2R-expressing cell lines (DiscoveRx, Fremont, CA). Briefly, CHO-K1 cells overexpressing the human CB2Rs were plated in a 96-well plate at a density of 10,000 cells per well and incubated overnight at 37 °C in 5% CO2. […] Following stimulation, the cells were lysed, and cAMP levels were detected according to the manufacturer’s protocol. Luminescence was measured using the GloMax Multi-Detection System (Promega, Italy). Results were expressed as mean ± SEM and derived from three independent experiments conducted in triplicate. […]

T1 sequence (P37231 238-503 limits assumed): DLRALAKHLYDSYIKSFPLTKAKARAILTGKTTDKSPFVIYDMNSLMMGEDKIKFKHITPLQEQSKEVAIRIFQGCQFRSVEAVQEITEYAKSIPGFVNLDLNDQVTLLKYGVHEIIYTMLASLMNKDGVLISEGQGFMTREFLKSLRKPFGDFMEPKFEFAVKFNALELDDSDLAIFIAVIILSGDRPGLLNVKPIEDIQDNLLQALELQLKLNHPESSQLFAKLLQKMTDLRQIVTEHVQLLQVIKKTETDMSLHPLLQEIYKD
human CB2R, sequence (P34972 whole entry): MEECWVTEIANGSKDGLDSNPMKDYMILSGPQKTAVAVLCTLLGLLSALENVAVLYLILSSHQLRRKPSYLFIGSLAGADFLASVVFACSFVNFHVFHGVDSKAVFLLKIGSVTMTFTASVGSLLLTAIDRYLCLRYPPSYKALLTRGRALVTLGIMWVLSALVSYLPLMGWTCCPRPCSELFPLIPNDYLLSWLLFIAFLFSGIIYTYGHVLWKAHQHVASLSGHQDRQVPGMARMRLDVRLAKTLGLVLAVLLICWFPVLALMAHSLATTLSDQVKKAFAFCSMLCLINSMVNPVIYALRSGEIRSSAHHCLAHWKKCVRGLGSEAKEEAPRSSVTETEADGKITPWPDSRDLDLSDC

What is called IC50 is the point on the concentration scale where inhibition reaches its midpoint. As to `CC(C)C[C@H]1C(=O)N(Cc2ccc(C(F)(F)F)cc2)c2ccccc2C(=O)N1Cc1ccc(C(F)(F)F)cc1` [Compound 31, (S)-3-Isobutyl-1,4-bis(4-(trifluoromethyl)benzyl)-3,4-dihydro-1H-benzo[e][1,4]diazepine-2,5-dione], the IC50 in test [1] was above 30 µM.

`CC(C)C[C@@H](C(=O)OCc1ccccc1)N1Cc2ccccc2NC1=O` [Compound 63, Benzyl (S)-4-Methyl-2-(2-oxo-1,4-dihydroquinazolin-3(2H)-yl)pentanoate]: the “functional activity at CB2R (NKH-477-induced cAMP levels)” value on human CB2R was “functional inverse agonist activity”. Besides, the concentration for half-maximal inhibition (IC50) in test [1] was above 30 µM.
